Laboratory results taken from PubChem BioAssay AID336 (DTP/NCI, 2004).
“And” between values parts separate entries of the source, which are not always exact repeats. Equal entries are not always repeated. Toxic doses and inconclusive results are not listed.

Test system: BDF1 mice, P388/VCR leukemia ip, median survival T/C
Assay: NCI In Vivo Anticancer Drug Screen. Data for tumor model P388 Leukemia resistant to Vincristine; NSC 67574 (intraperitoneal) in B6D2F1 (BDF1) mice
Details: endpoint: median survival time, higher = longer survival
Method: The antitumor activity of compounds was measured in mice bearing transplantable tumors. Survival or tumor size were measured and the results are expressed as the measurement made in the treated group (T) divided by the measurement made in the vehicle treated control group (C). The tumor model used in this assay is P388 Leukemia resistant to Vincristine; NSC 67574 (intraperitoneal) in B6D2F1 (BDF1) mice

[1] = dose: 15.0 mg/kg/injection, schedule: Q01DX010 (ip), vehicle: saline
[2] = dose: 30.0 mg/kg/injection, schedule: Q01DX010 (ip), vehicle: saline
[3] = dose: 60.0 mg/kg/injection, schedule: Q01DX010 (ip), vehicle: saline
[4] = dose: 25.0 mg/kg/injection, schedule: Q01DX010 (ip), vehicle: saline
[5] = dose: 50.0 mg/kg/injection, schedule: Q01DX010 (ip), vehicle: saline
[6] = dose: 100.0 mg/kg/injection, schedule: Q01DX010 (ip), vehicle: saline
[7] = dose: 200.0 mg/kg/injection, schedule: Q01DX010 (ip), vehicle: saline
[8] = dose: 18.0 mg/kg/injection, schedule: Q01DX010 (ip), vehicle: saline
[9] = dose: 27.0 mg/kg/injection, schedule: Q01DX010 (ip), vehicle: saline
[10] = dose: 62.5 mg/kg/injection, schedule: Q01DX010 (ip), vehicle: saline
[11] = dose: 125.0 mg/kg/injection, schedule: Q01DX010 (ip), vehicle: saline
[12] = dose: 1.5 mg/kg/injection, schedule: Q01DX010 (ip), vehicle: saline
[13] = dose: 3.0 mg/kg/injection, schedule: Q01DX010 (ip), vehicle: saline
[14] = dose: 6.0 mg/kg/injection, schedule: Q01DX010 (ip), vehicle: saline

C[N+](C)(C)c1ncnc2nc[nH]c12
T/C [1]: 100 % of control | T/C [2]: 120 % of control | T/C [3]: 113 % of control | T/C (dose: 120.0 mg/kg/injection, schedule: Q01DX010 (ip), vehicle: saline): 116 % of control

CO[C@H]1Nc2c(ccc(C)c2O)C(=O)N2C=C(/C=C/C(N)=O)C[C@@H]12
T/C (dose: 151.0 micrograms/kg/injection, schedule: Q04DX003 (ip), vehicle: saline + alcohol): 113 % of control | T/C (dose: 360.0 micrograms/kg/injection, schedule: Q04DX003 (ip), vehicle: saline + alcohol): 122 % of control

O=C(Nc1ccc(C(=O)Nc2ccc(C3=NCCCN3)cc2)cc1)Nc1ccc(C2=NCCCN2)cc1
T/C (dose: 1.88 mg/kg/injection, schedule: Q01DX010 (ip), vehicle: saline): 116 % of control and 123 % of control | T/C (dose: 3.75 mg/kg/injection, schedule: Q01DX010 (ip), vehicle: saline): 116 % of control and 123 % of control | T/C [1]: 123 % of control

O=C1C(NC(=O)C2CCCCC2)=C(N2CC2)C(=O)C(NC(=O)C2CCCCC2)=C1N1CC1
T/C [4]: 103 % of control | T/C [5]: 115 % of control | T/C [6]: 115 % of control | T/C [7]: 123 % of control

Cc1cc(N(CCCl)CCCl)ccc1N=Nc1ccccc1C(=O)O
T/C (dose: 5.0 mg/kg/injection, schedule: Q01DX010 (ip), vehicle: saline): 91 % of control and 112 % of control

CN=C(NC)c1ccc(NC(=O)c2ccc(C(=O)Nc3ccc(C(=NC)NC)cc3)c(Cl)c2)cc1
T/C [8]: 117 % of control | T/C [9]: 95 % of control

O=C1CCC(N2C(=O)c3ccccc3C2=O)C(=O)N1 (stereo not drawn)
T/C [10]: 95 % of control | T/C [11]: 91 % of control

CCC1(O)CC2CN(CCc3c([nH]c4ccccc34)C(C(=O)OC)(c3cc4c(cc3OC)N(C)C3C(O)(C(=O)NCCSSCCNC(=O)C5(O)C(O)C6(CC)C=CCN7CCC8(c9cc(C%10(C(=O)OC)CC%11CN(CCc%12c%10[nH]c%10ccccc%12%10)CC(O)(CC)C%11)c(OC)cc9N(C)C58)C76)C(O)C5(CC)C=CCN6CCC43C65)C2)C1 (stereo not drawn)
T/C (dose: 250.0 micrograms/kg/injection, schedule: Q04DX003 (ip), vehicle: saline): 117 % of control | T/C (dose: 648.0 micrograms/kg/injection, schedule: Q04DX003 (ip), vehicle: saline): 154 % of control | T/C (dose: 1000.0 micrograms/kg/injection, schedule: Q04DX003 (ip), vehicle: saline): 161 % of control | T/C (dose: 2000.0 micrograms/kg/injection, schedule: Q04DX003 (ip), vehicle: saline): 164 % of control | T/C (dose: 3000.0 micrograms/kg/injection, schedule: Q04DX003 (ip), vehicle: saline): 90 % of control

CC[C@H]1CN2CCc3cc(OC)c(OC)cc3[C@@H]2C[C@@H]1C[C@@H]1c2cc(OC)c(OC)cc2CCN1CCN(CCCl)CCCl
T/C (dose: 6.48 mg/kg/injection, schedule: Q04DX003 (ip), vehicle: saline with Tween-80): 107 % of control | T/C (dose: 10.8 mg/kg/injection, schedule: Q04DX003 (ip), vehicle: saline with Tween-80): 111 % of control

CO[C@@]12[C@H](COC(N)=O)C3=C(C(=O)C(C)=C(N)C3=O)N1C[C@@H]1N[C@@H]12
T/C (dose: 1.08 mg/kg/injection, schedule: Q04DX003 (ip), vehicle: saline): 184 % of control | T/C (dose: 1.8 mg/kg/injection, schedule: Q04DX003 (ip), vehicle: saline): 221 % of control | T/C (dose: 3.0 mg/kg/injection, schedule: Q04DX003 (ip), vehicle: saline): 184 % of control | T/C (dose: 5.0 mg/kg/injection, schedule: Q04DX003 (ip), vehicle: saline): 124 % of control

COc1cc([C@@H]2c3cc4c(cc3[C@@H](OC3OC5CO[C@@H](c6cccs6)OC5C(O)C3O)[C@H]3COC(=O)[C@H]23)OCO4)cc(OC)c1O (stereo partly drawn)
T/C (dose: 5.4 mg/kg/injection, schedule: Q04DX003 (ip), vehicle: clinical formulation): 153 % of control | T/C (dose: 15.0 mg/kg/injection, schedule: Q04DX003 (ip), vehicle: clinical formulation): 172 % of control

N#CCSc1ncnc2nc[nH]c12
T/C [1]: 96 % of control and 100 % of control | T/C [2]: 100 % of control and 103 % of control | T/C [3]: 108 % of control and 123 % of control

O[C@H](CN1CC1)[C@@H](O)CN1CC1
T/C (dose: 0.13 mg/kg/injection, schedule: Q01DX010 (ip), vehicle: saline): 180 % of control and 200 % of control | T/C (dose: 0.25 mg/kg/injection, schedule: Q01DX010 (ip), vehicle: saline): 150 % of control and 241 % of control

O=C(Nc1ccc(C2=NCCN2)cc1)c1ccc(NC(=O)c2ccc(C3=NCCN3)cc2)cc1
T/C [8]: 104 % of control | T/C [9]: 108 % of control | T/C (dose: 40.0 mg/kg/injection, schedule: Q01DX010 (ip), vehicle: saline): 113 % of control | T/C [3]: 113 % of control

CC1CC(C)(O)CC(C(O)CC2CC(=O)NC(=O)C2)C1=O (stereo not drawn)
T/C (dose: 480.0 micrograms/kg/injection, schedule: Q01DX009 (ip), vehicle: saline): 105 % of control | T/C (dose: 800.0 micrograms/kg/injection, schedule: Q01DX009 (ip), vehicle: saline): 92 % of control

S=P(N1CC1)(N1CC1)N1CC1
T/C (dose: 0.75 mg/kg/injection, schedule: Q01DX010 (ip), vehicle: saline): 91 % of control and 95 % of control | T/C [12]: 91 % of control | T/C [13]: 95 % of control | T/C [14]: 91 % of control and 104 % of control

Nc1nc2n[nH]nc2c(=O)[nH]1
T/C (dose: 25.0 mg/kg/injection, schedule: Q01DX010 (ip), vehicle: alkali diluted with saline): 155 % of control and 170 % of control | T/C (dose: 50.0 mg/kg/injection, schedule: Q01DX010 (ip), vehicle: alkali diluted with saline): 162 % of control and 191 % of control | T/C (dose: 100.0 mg/kg/injection, schedule: Q01DX010 (ip), vehicle: alkali diluted with saline): 170 % of control and 204 % of control | T/C (dose: 200.0 mg/kg/injection, schedule: Q01DX010 (ip), vehicle: alkali diluted with saline): 177 % of control and 204 % of control

CSc1ncnc2nc[nH]c12
T/C [4]: 104 % of control and 107 % of control | T/C [5]: 103 % of control and 116 % of control | T/C [6]: 112 % of control and 115 % of control | T/C [7]: 111 % of control and 112 % of control

CC[C@H]1CN2CCc3cc(OC)c(OC)cc3[C@@H]2C[C@@H]1C[C@H]1NCCc2cc(OC)c(OC)cc21
T/C (dose: 7.78 mg/kg/injection, schedule: Q04DX003 (ip), vehicle: saline): 105 % of control | T/C (dose: 13.0 mg/kg/injection, schedule: Q04DX003 (ip), vehicle: saline): 108 % of control | T/C (dose: 21.6 mg/kg/injection, schedule: Q04DX003 (ip), vehicle: saline): 105 % of control

N=C(N)c1ccc(Nc2ccc(C(=N)N)cc2)cc1
T/C [12]: 106 % of control | T/C [13]: 92 % of control and 106 % of control | T/C [14]: 89 % of control and 106 % of control | T/C (dose: 12.0 mg/kg/injection, schedule: Q01DX010 (ip), vehicle: saline): 92 % of control and 113 % of control

CCN(CC)CCNc1ccc(CO)c2sc3ccccc3c(=O)c12
T/C (dose: 21.6 mg/kg/injection, schedule: Q01DX009 (ip), vehicle: water): 109 % of control | T/C (dose: 25.2 mg/kg/injection, schedule: Q01DX009 (ip), vehicle: water): 120 % of control | T/C (dose: 36.0 mg/kg/injection, schedule: Q01DX009 (ip), vehicle: water): 112 % of control | T/C (dose: 114.0 mg/kg/injection, schedule: Q01DX009 (ip), vehicle: water): 90 % of control

COc1ccc(CC2C(=O)NC(C)C(=O)N(C)C3Cc4ccc(cc4)Oc4cc(ccc4O)CC(C(=O)NC(C)C(=O)NC(C)C(=O)N2C)N(C)C3=O)cc1 (stereo not drawn)
T/C (dose: 4.32 mg/kg/injection, schedule: Q04DX003 (ip), vehicle: other): 108 % of control | T/C (dose: 7.2 mg/kg/injection, schedule: Q04DX003 (ip), vehicle: other): 103 % of control

O=C(Nc1ccc(C2=NCCN2)cc1)c1ccc(C(=O)Nc2ccc(C3=NCCN3)cc2)c(NC(=O)c2ccc(C(=O)Nc3cc(C(=O)Nc4ccc(C5=NCCN5)cc4)ccc3C(=O)Nc3ccc(C4=NCCN4)cc3)cc2)c1
T/C [4]: 109 % of control | T/C [5]: 109 % of control | T/C [6]: 104 % of control | T/C [7]: 104 % of control

CCn1cnc2c(=S)nc[nH]c21
T/C (dose: 15.6 mg/kg/injection, schedule: Q01DX010 (ip), vehicle: saline): 100 % of control and 109 % of control | T/C (dose: 31.3 mg/kg/injection, schedule: Q01DX010 (ip), vehicle: saline): 100 % of control | T/C [10]: 100 % of control | T/C [11]: 95 % of control

O=C(Nc1ccc(C2=NCCN2)cc1)c1ccc(C(=O)Nc2ccc(C3=NCCN3)cc2)c(F)c1
T/C (dose: 22.5 mg/kg/injection, schedule: Q01DX010 (ip), vehicle: saline): 100 % of control | T/C (dose: 45.0 mg/kg/injection, schedule: Q01DX010 (ip), vehicle: saline): 107 % of control | T/C (dose: 90.0 mg/kg/injection, schedule: Q01DX010 (ip), vehicle: saline): 123 % of control
